{
  "source": "patent US20220257514A1",
  "about": "“MONOSACCHARIDE-TAGGED NANO-LIPOSOME DRUG DELIVERY SYSTEM, THE MANUFACTURE AND USE FOR DRUG TARGETING DELIVERY THEREOF” (National Yang Ming Chiao Tung University, priority 2019, published 2022)",
  "key": {"L929 fibroblasts": {"tested_on": "L929 fibroblasts", "assay": "Annexin V/PI apoptosis, normal cell line", "format": "cell-based", "conditions": "L929 fibroblasts cultured under attached conditions"}, "A549 CSC": {"tested_on": "A549 CSC", "conditions": "stated as known; cited from earlier work"}},
  "data": [
    {"substance": "ceramide [free ceramide]", "values": [
      {"measurement": "apoptosis in normal cells", "setting": "L929 fibroblasts", "result": "neither free ceramide nor G5C3 cause significant apoptosis"},
      {"measurement": "resistance of A549 CSC", "setting": "A549 CSC", "result": "resistant to free ceramide"}
    ]}
  ]
}
